In patent publication US20240100079A1, “METHODS AND COMPOSITIONS FOR REGENERATING HAIR CELLS IN THE INNER EAR OF ADULT MAMMALS” (Massachusetts Eye and Ear Infirmary, priority 2021, published 2024):

Key:
[1] = system: cultured adult mouse cochlea; experiment: Hair cell regeneration in cultured adult wild-type mouse cochlea, reprogramming followed by ad-Atoh1 infection; assay type: cell-based; conditions: for reprogramming and regeneration of hair cells with another HDAC inhibitor in the cocktail instead of VPA: TSA 82.5 nM, SAHA 2 μM, Belinostat 1 μM with LiCl, FSK, siFIR, siMxi1, after Ad-Atoh1 infection
Description: Different from the neonatal cochlear culture method, in which the cochleae were disassociated from the bone, adult mouse whole cochleae (4-6 weeks old) were dissected with the bone attached. The bulla was first removed from the skull and dipped in 75% ethanol for 3 minutes before being placed in HBSS. The vestibular region was also removed. Under a dissecting microscope, the middle ear, vessels and the debris were removed from the bulla. The bone covering the apical turn was removed, and round window and oval window membranes were opened to allow media exchange with the cochlear fluids. The ligament portion and Reissner's membrane at each end of the cochlea were also removed to facilitate the access of medium to the sensory epithelial region. The cochleae were maintained in DMEM/F12 (Invitrogen) supplemented with N2 and B27 (both from Invitrogen) for 14-18 days. Ad-Atoh1 ad-Atoh1-mCherry adenoviruses were purchased from the SignaGen Laboratories, Rockville, MD, with titers of 6×10^10 pfu/ml.
In the rtTA/tet-Myc/tet-NICD mouse model, cochleae were treated with Dox (Sigma, 2 μg/ml final concentration); In the Sox2/tdT/rtTA/tet-Myc/tet-NICD mouse model, cochleae were treated with Dox (Sigma, 2 μg/ml final concentration) and 4-Hydroxytamoxifen (Tm, Sigma) (20 ng/ml); in the rtTA/tet-Myc and rtTA/tet-Myc/Atoh1-GFP mouse models, cochleae were treated with Dox (Sigma, 2 μg/ml final concentration) and VPA (2 mM); in the Sox2/tdT/rtTA/tet-Myc mouse model, cochleae were treated with 4-Hydroxytamoxifen (20 ng/ml), Dox (Sigma, 2 μg/ml) and VPA (Sigma, 2 mM); in the rtTA/tet-NICD mouse model, cochleae were treated with Dox (Sigma, 2 μg/ml final concentration), LiCl (Sigma, 8 mM), FSK (Tocris Bioscience, 20 μM), siFIR (Santa Cruz Bio-technology, 0.02 μM), and siMxi1 (Santa Cruz Bio-technology, 0.02 μM); in the Sox2/tdT/rtTA/tet-NICD mouse model, cochleae were treated with 4-Hydroxytamoxifen (20 ng/ml), Dox (Sigma, 2 μg/ml final concentration), LiCl (8 mM), Forskolin (FSK) (20 μM), siFIR (Puf 60, Gene ID: 67959) […], and siMxi1 (Gene ID: 17859) (0.02 μM); in the Atoh1-GFP mouse model, cochleae were treated with VPA (2 mM), LiCl (8 mM), FSK […], siFIR (0.02 μM), and siMxi1 (0.02 μM) for 4 days, followed by ad-Atoh1 (6×10^10 pfu/ml) infection overnight. siRNAs were delivered following the manufacturer's instructions (Polyplus-transfection; 89129-920). In cultured adult mouse cochleae, they were treated with HDAC inhibitor, Belinostat (1 μM, Medchemexpress), Trichostatin A (TSA)(82.5 nM, Medchemexpress), Vorinostat (SAHA)(2 μM; Medchemexpress), and Myc siRNA Fbxw7 (0.02 μM, Santa Cruz Biotechnology). The controls were cultured adult cochleae of the same genotype treated with vehicle (sterile water with 0.1% DMSO) plus ad-Atoh1. […]

[2] = system: adult wild-type mouse utricle; experiment: Neomycin damage of cultured adult mouse utricle; assay type: cell-based; conditions: neomycin 4 mM for 5 days, vs untreated utricles
Description: Whole utricles were dissected from 4-week-old mice and cultured free-floating. Otoconia were removed using a gentle stream of phosphate-buffered saline (PBS) ejected from a 25G needle and syringe. Utricles were cultured in 1000 μL of media in untreated 24-well flat bottom plates. All cultures were maintained at 37° C. in 5% CO2/95% air.
Culture media consisted of Dulbecco's Modified Eagle's Medium/F12 (DMEM/F12, Invitrogen) with B27 and N2 supplement. Neomycin sulfate stock (10 mg/mL in 0.9% NaCl, from Sigma Aldrich) was diluted in culture media to 4 mM. Valproic acid (VPA) from Sigma was included at 2 mM, and siRNAs from Santa Cruz were included at 0.02 μM.

Compound | reprogramming and regeneration of hair cells with another HDAC inhibitor in the cocktail instead of VPA [1] | also measured
CCCC(CCC)C(=O)[O-].[Na+] [VPA, Sodium 2-propylpentanoate] |  | HC (MYO7A+) regeneration ([1]; cultured adult WT cochlea, treatment followed by Ad-Atoh1 infection (FIG. 7B)): did not lead to HC (MYO7A)
Neomycin sulfate |  | utricle hair cells (MYO7A) after neomycin [2]: decreased total numbers of utricle HC; utricle hair cells (MYO7A) after neomycin ([2]; listed as Neomycin): loss of hair cells
O=C(/C=C/c1cccc(S(=O)(=O)Nc2ccccc2)c1)NO [Belinostat, belinostat] | sufficient to induce reprogramming and efficient regeneration of hair cells | 
O=C(CCCCCCC(=O)Nc1ccccc1)NO [SAHA, N-Hydroxy-N′-phenyloctanediamide] | sufficient to induce reprogramming and efficient regeneration of hair cells | 
CC(/C=C/C(=O)NO)=C\[C@@H](C)C(=O)c1ccc(N(C)C)cc1 [TSA, (2E,4E,6R)-7-(4-(Dimethylamino)phenyl)-N-hydroxy-4,6-dimethyl-7-oxo-2,4-heptadienamide] | sufficient to induce reprogramming and efficient regeneration of hair cells | 
